In patent US20210254056A1, “IDENTIFICATION AND TARGETED MODULATION OF GENE SIGNALING NETWORKS” (CAMP4 THERAPEUTICS CORPORATION, priority 2017, published 2021):

Tested on: hepatocytes
Assay: RNA-seq of hepatocytes treated with Phase III failure compounds
Experimental: RNA-seq was performed to determine the effects of the compounds on hepatocytes.
Significance was determined by the criteria of FPKM≥0.5, a log 2(fold-change)≥1, and a […].

[1] = RNA-seq, hepatocytes, gene named in the value

With `CCN(CC)CCN(Cc1ccc(-c2ccc(C(F)(F)F)cc2)cc1)C(=O)Cn1c(SCc2ccc(F)cc2)nc(=O)c2c1CCC2` [Darapladib] the “RNA-seq results, CYP2B6 expression” value was −0.12, the “RNA-seq results, CYP2C19 expression” value was −0.01 and the “RNA-seq results, CYP2D6 expression” value was −0.21. For the same molecule, the “RNA-seq results, CYP3A4 expression” value was −0.47, the “RNA-seq results, CYP7B1 expression” value was −0.03 and the “RNA-seq results, CYP39A1 expression” value was −0.23. For the same molecule, the “RNA-seq results: CYP2B6 expression” value was 0.25, the “RNA-seq results: CYP2C19 expression” value was 0.54 and the “RNA-seq results: CYP2D6 expression” value was −0.06. For the same molecule, the “RNA-seq results: CYP3A4 expression” value was 0.07, the “RNA-seq results: CYP7B1 expression” value was −0.46 and the “RNA-seq results: CYP39A1 expression” value was −0.07. For the same molecule, the “significant modulation of expression of disease genes” value (RNA-seq, q≤0.05, hepatocytes, genes in the value or listed in the block) was “significantly (q≤0.05) modulate expression”, the “genes down-regulated by the compound” value [1] was “ANGPTL3 was observed to be down-regulated” and the “genes up-regulated by the compound” value [1] was “up-regulated genes: LDLR, PCSK9, and HMGCR”. For the same molecule, the “RNA-seq results: A1BG expression” value (gene A1BG, hepatocytes) was 0.01, the “RNA-seq results: AGTR1 expression” value (gene AGTR1, hepatocytes) was −0.18 and the “RNA-seq results: AGXT expression” value (gene AGXT, hepatocytes) was −0.38. For the same molecule, the “RNA-seq results: AHI1 expression” value (gene AHI1, hepatocytes) was 0.12, the “RNA-seq results: AMPD3 expression” value (gene AMPD3, hepatocytes) was 0.42 and the “RNA-seq results: AMT expression” value (gene AMT, hepatocytes) was −0.35. The “RNA-seq results: ANGPTL3 expression” value (gene ANGPTL3, hepatocytes) was −1.20, the “RNA-seq results: ANKS4B expression” value (gene ANKS4B, hepatocytes) was −0.52 and the “RNA-seq results: ANKS6 expression” value (gene ANKS6, hepatocytes) was 0.11. The “RNA-seq results: ANPEP expression” value (gene ANPEP, hepatocytes) was 0.11, the “RNA-seq results: AOC2 expression” value (gene AOC2, hepatocytes) was 0.28 and the “RNA-seq results: APOA2 expression” value (gene APOA2, hepatocytes) was −0.33. For the same molecule, the “RNA-seq results: APOA5 expression” value (gene APOA5, hepatocytes) was −0.19, the “RNA-seq results: APOB expression” value (gene APOB, hepatocytes) was 0.54 and the “RNA-seq results: COG5 expression” value (gene COG5, hepatocytes) was 0.11. For the same molecule, the “RNA-seq results: COG6 expression” value (gene COG6, hepatocytes) was −0.09, the “RNA-seq results: COL1A1 expression” value (gene COL1A1, hepatocytes) was 0.18 and the “RNA-seq results: COX6A1 expression” value (gene COX6A1, hepatocytes) was −0.08. The “RNA-seq results: CP expression” value (gene CP, hepatocytes) was 0.77, the “RNA-seq results: CPS1 expression” value (gene CPS1, hepatocytes) was −0.89 and the “RNA-seq results: CPT1A expression” value (gene CPT1A, hepatocytes) was 0.11. For the same molecule, the “RNA-seq results: CPT2 expression” value (gene CPT2, hepatocytes) was −0.16, the “RNA-seq results: CROT expression” value (gene CROT, hepatocytes) was −0.49 and the “RNA-seq results: CSPP1 expression” value (gene CSPP1, hepatocytes) was 0.24. For the same molecule, the “RNA-seq results: CTC1 expression” value (gene CTC1, hepatocytes) was −0.01, the “RNA-seq results: CTDSP2 expression” value (gene CTDSP2, hepatocytes) was 0.52 and the “RNA-seq results: CTH expression” value (gene CTH, hepatocytes) was 1.17. The “RNA-seq results: CTNS expression” value (gene CTNS, hepatocytes) was −0.11, the “RNA-seq results: CTSF expression” value (gene CTSF, hepatocytes) was 0.25 and the “RNA-seq results: CTSK expression” value (gene CTSK, hepatocytes) was 0.31. For the same molecule, the “RNA-seq results: CYB5A expression” value (gene CYB5A, hepatocytes) was −0.12, the “RNA-seq results: CYB5R3 expression” value (gene CYB5R3, hepatocytes) was −0.21 and the “RNA-seq results: CYP27A1 expression” value (gene CYP27A1, hepatocytes) was −0.18. For the same molecule, the “RNA-seq results: DAO expression” value (gene DAO, hepatocytes) was −1.06, the “RNA-seq results: DBT expression” value (gene DBT, hepatocytes) was −0.13 and the “RNA-seq results: DCDC2 expression” value (gene DCDC2, hepatocytes) was −1.43. The “RNA-seq results: DCXR expression” value (gene DCXR, hepatocytes) was −0.74, the “RNA-seq results: FABP1 expression” value (gene FABP1, hepatocytes) was 0.07 and the “RNA-seq results: FADD expression” value (gene FADD, hepatocytes) was −0.45. The “RNA-seq results: FAM111A expression” value (gene FAM111A, hepatocytes) was 0.1, the “RNA-seq results: FAM111B expression” value (gene FAM111B, hepatocytes) was −2.15 and the “RNA-seq results: FAN1 expression” value (gene FAN1, hepatocytes) was −0.03. For the same molecule, the “RNA-seq results: FARS2 expression” value (gene FARS2, hepatocytes) was −0.42, the “RNA-seq results: FASLG expression” value (gene FASLG, hepatocytes) was −1.32 and the “RNA-seq results: FGA expression” value (gene FGA, hepatocytes) was −0.32. The “RNA-seq results: FGD1 expression” value (gene FGD1, hepatocytes) was −0.46, the “RNA-seq results: FGFR2 expression” value (gene FGFR2, hepatocytes) was −0.13 and the “RNA-seq results: FIG4 expression” value (gene FIG4, hepatocytes) was −0.07. The “RNA-seq results: FIS1 expression” value (gene FIS1, hepatocytes) was −0.35, the “RNA-seq results: FTCD expression” value (gene FTCD, hepatocytes) was −0.56 and the “RNA-seq results: FTH1 expression” value (gene FTH1, hepatocytes) was 0.44. The “RNA-seq results: FUCA1 expression” value (gene FUCA1, hepatocytes) was −0.13, the “RNA-seq results: FXN expression” value (gene FXN, hepatocytes) was −0.22 and the “RNA-seq results: G6PC3 expression” value (gene G6PC3, hepatocytes) was −0.52. The “RNA-seq results: G6PC expression” value (gene G6PC, hepatocytes) was 0.6, the “RNA-seq results: G6PD expression” value (gene G6PD, hepatocytes) was −0.41 and the “RNA-seq results: GALK1 expression” value (gene GALK1, hepatocytes) was −0.61. The “RNA-seq results: GALK2 expression” value (gene GALK2, hepatocytes) was −0.14, the “RNA-seq results: GALT expression” value (gene GALT, hepatocytes) was −0.58 and the “RNA-seq results: GATA6 expression” value (gene GATA6, hepatocytes) was 0. For the same molecule, the “RNA-seq results: GATM expression” value (gene GATM, hepatocytes) was −0.52, the “RNA-seq results: GBA expression” value (gene GBA, hepatocytes) was −0.23 and the “RNA-seq results: GBE1 expression” value (gene GBE1, hepatocytes) was −0.11. For the same molecule, the “RNA-seq results: GCH1 expression” value (gene GCH1, hepatocytes) was −0.19, the “RNA-seq results: GCKR expression” value (gene GCKR, hepatocytes) was −0.06 and the “RNA-seq results: GCLC expression” value (gene GCLC, hepatocytes) was −0.02. The “RNA-seq results: GOSH expression” value (gene GOSH, hepatocytes) was −1.21, the “RNA-seq results: RRM2B” value (gene RRM2B, hepatocytes) was −0.49 and the “RNA-seq results: RSAD1” value (gene RSAD1, hepatocytes) was −0.13. The “RNA-seq results: SAMHD1” value (gene SAMHD1, hepatocytes) was −0.48, the “RNA-seq results: SC5D” value (gene SC5D, hepatocytes) was 0.37 and the “RNA-seq results: SCARB1” value (gene SCARB1, hepatocytes) was −0.07. The “RNA-seq results: SCN9A” value (gene SCN9A, hepatocytes) was −0.42, the “RNA-seq results: SDCCAG8” value (gene SDCCAG8, hepatocytes) was −0.06 and the “RNA-seq results: SEPN1” value (gene SEPN1, hepatocytes) was −0.10. For the same molecule, the “RNA-seq results: SERAC1” value (gene SERAC1, hepatocytes) was −0.02, the “RNA-seq results: SERPINA1” value (gene SERPINA1, hepatocytes) was −0.05 and the “RNA-seq results: SERPING1” value (gene SERPING1, hepatocytes) was 0.21. For the same molecule, the “RNA-seq results: SERPINI1” value (gene SERPINI1, hepatocytes) was −0.42, the “RNA-seq results: SETBP1” value (gene SETBP1, hepatocytes) was −0.10 and the “RNA-seq results: SFXN4” value (gene SFXN4, hepatocytes) was −0.38. For the same molecule, the “RNA-seq results: SLC10A1” value (gene SLC10A1, hepatocytes) was −0.68, the “RNA-seq results: SLC10A3” value (gene SLC10A3, hepatocytes) was 0.47 and the “RNA-seq results: SLC10A5” value (gene SLC10A5, hepatocytes) was −0.54. The “RNA-seq results: SLC10A7” value (gene SLC10A7, hepatocytes) was −0.22, the “RNA-seq results: SLC11A2” value (gene SLC11A2, hepatocytes) was 0.39 and the “RNA-seq results: SLC19A1” value (gene SLC19A1, hepatocytes) was −0.26. For the same molecule, the “RNA-seq results: SLC19A2” value (gene SLC19A2, hepatocytes) was 0.54, the “RNA-seq results: SLC19A3” value (gene SLC19A3, hepatocytes) was −0.22 and the “RNA-seq results: SLC22A1” value (gene SLC22A1, hepatocytes) was −0.28. The “RNA-seq results: SLC22A5” value (gene SLC22A5, hepatocytes) was −0.23, the “RNA-seq results: SLC25A1” value (gene SLC25A1, hepatocytes) was 0.24 and the “RNA-seq results: SLC25A10” value (gene SLC25A10, hepatocytes) was −0.48. The “RNA-seq results: SLC25A12” value (gene SLC25A12, hepatocytes) was −0.22, the “RNA-seq results: SLC25A13” value (gene SLC25A13, hepatocytes) was 0.20 and the “RNA-seq results: SLC25A15” value (gene SLC25A15, hepatocytes) was −0.28. For the same molecule, the “RNA-seq results: SLC25A19” value (gene SLC25A19, hepatocytes) was 0.03, the “RNA-seq results: SLC25A20” value (gene SLC25A20, hepatocytes) was −0.62 and the “RNA-seq results: SLC25A29” value (gene SLC25A29, hepatocytes) was 0.92. For the same molecule, the “RNA-seq results: SLC25A32” value (gene SLC25A32, hepatocytes) was −0.21.
